{"source": "patent US20070107074A1", "about": "“Porcine Nuclear Transfer” (Garelag Pty Ltd., priority 1998, published 2007)", "key": {"[1]": {"system": "porcine morulae", "assay": "In vitro development of porcine morulae following NZ treatment", "assay_type": "cell-based", "conditions": "15 h", "experimental": "In vitro culture of oocytes, embryos and nuclear transfer embryos was conducted in 25 μl droplets of Whitten's medium (Whitten W K, 1971, in G Raspe, ed Advances in the Biosciences, Pergamon Press: Oxford, pp 129-141) supplemented with 15 mg/ml bovine serum albumin (BSA) under paraffin oil in a plastic petrie dish under an atmosphere of 5% CO2, 5% O2 and 90% N2 in humidified air at […]."}, "[2]": {"system": "porcine blastomere nuclei", "assay": "Metaphase arrest induced in porcine blastomere nuclei following treatment with nocodazole", "assay_type": "cell-based", "description": "Preferably, karyoplasts may be synchronized at the G1 state using a DNA synthesis inhibitor and/or use of a microtubule inhibitor which, on following removal of the inhibitor(s), results in synchronization of the karyoplast at the G1 state, or by means other than DNA inhibition, excluding serum starvation, for example cdk kinase inhibitors such as Butyrolactone I (Motlik et al (1998) Theriogeneology 49: 461-469). Examples of DNA synthesis inhibitors include: aphidicolin, hydroxyurea, cytosine arabinoside, 5-fluorouracil, n-ethylmalemide and etoposide. Any microtubule inhibitor may be used in this invention including nocodazole, colchecine or colcemid. Alternatively, a microtubule stabilizer such as, for example, taxol may be used. Karyoplasts may, for example, be synchronized at G1 by the use of a microtubule inhibitor such as nocodazole (to give a population of nuclei at the metaphase) followed by treatment with a DNA synthesis inhibitor such as aphidicolin in which the nuclei progress to an arrest at the G1 state. […] Karyoplasts may be synchronized in the Go state by nutrient deprivation, such as incubation in a low serum containing medium, as is known in the art, or by chemical treatment. Donor karyoplasts (such as cells) may be incubated in a standard culture medium with a DNA synthesis inhibitor and/or microtubule inhibitor for a time sufficient to synchronize the cells at the G1 state. This can be readily observed by microscopic observations. DNA synthesis inhibitors and/or microtubule inhibitors may be used, for example, in an amount of from about 0.01 μg/ml to about 50 μg/ml, such as about 1-5 μg/ml culture medium. Microtubule inhibitors fix the cells at the M phase. After removal of microtubule inhibitor from the cell media, which can conveniently be done by washing the cells, cells pass to the G1 phase after about 30 minutes to 6 hours in a uniform manner such that a plurality of cells in the G1 phase can be conveniently prepared. A DNA synthesis inhibitor synchronises cells at the G1 phase. Removal of a DNA synthesis inhibitor from cell media allows the cell cycle to proceed. Similarly donor karyoplasts may be synchronized in the G0 state as described above."}}}
{"smiles": "COC(=O)Nc1nc2ccc(C(=O)c3cccs3)cc2[nH]1", "note": "[NZ, nocodazole]", "values": [{"measurement": "Development to blastocyst", "setting": "[1]; NZ 0.5 μg/ml, 3 repeats", "value": 70, "unit": "%"}, {"measurement": "Development to blastocyst", "setting": "[1]; NZ 0.5 μg/ml, 3 repeats, number of blastocysts/total", "value": "14/20"}, {"measurement": "Development to blastocyst", "setting": "[1]; NZ 1 μg/ml, 4 repeats", "value": 57, "unit": "%"}, {"measurement": "Development to blastocyst", "setting": "[1]; NZ 1 μg/ml, 4 repeats, number of blastocysts/total", "value": "17/30"}, {"measurement": "Blastomeres at M", "setting": "[2]; 4 h exposure, NZ 1 μg/ml", "value": "(24%)"}, {"measurement": "Blastomeres at M", "setting": "[2]; 4 h exposure, NZ 1 μg/ml, number at M/total", "value": "14/58"}, {"measurement": "Blastomeres at M", "setting": "[2]; 7 h exposure, NZ 1 μg/ml", "value": "(41%)"}, {"measurement": "Blastomeres at M", "setting": "[2]; 7 h exposure, NZ 1 μg/ml, number at M/total", "value": "54/133"}, {"measurement": "Blastomeres at M", "setting": "[2]; 15 h exposure, NZ 0.5 μg/ml", "value": "(76%)"}, {"measurement": "Blastomeres at M", "setting": "[2]; 15 h exposure, NZ 0.5 μg/ml, number at M/total", "value": "101/133"}, {"measurement": "Blastomeres at M", "setting": "[2]; 15 h exposure, NZ 1 μg/ml", "value": "(96%)"}, {"measurement": "Blastomeres at M", "setting": "[2]; 15 h exposure, NZ 1 μg/ml, number at M/total", "value": "257/267"}]}
